From article PMC4260220 (Scientific Reports, 2014)

Target: T1, PPARγ (Homo sapiens, UniProt P37231)
T1 sequence (P37231 231-505 limits assumed): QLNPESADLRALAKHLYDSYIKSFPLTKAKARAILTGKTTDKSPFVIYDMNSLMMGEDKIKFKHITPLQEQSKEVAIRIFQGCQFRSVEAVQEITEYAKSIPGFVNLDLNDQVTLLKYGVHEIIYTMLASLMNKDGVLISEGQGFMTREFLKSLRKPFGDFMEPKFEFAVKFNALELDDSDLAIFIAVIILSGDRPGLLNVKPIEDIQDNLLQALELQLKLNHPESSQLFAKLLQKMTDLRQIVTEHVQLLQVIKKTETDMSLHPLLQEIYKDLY
Assay: competitive TR-FRET binding assay

Structure (SMILES): CC(C)=CCC[C@](C)(O)[C@H]1CC[C@]2(C)[C@@H]1[C@H](O)C[C@@H]1[C@@]3(C)CC[C@H](O)C(C)(C)[C@@H]3[C@@H](O)C[C@]12C [PPT, 20(S)-5α-Dammar-24-ene-3β,6α,12β,20-tetrol]
- Ki: 4.2 µM
